Data on four molecules can be found in patent US5616123A, “Delivery of solid drug compositions” (Delab, priority 1995, dated 1997).

The nature of series [1]: plasma levels of BN 50730 after subcutaneous injection (FIGS. 13, 14). It is filed as in vivo, rabbits. The procedure:
These cylinders were injected subcutaneously into rabbits at a dosage of 2.0 mg/kg for a comparison study with BN 50730 mixed with propylene glycol. […] This 10 ng/ml is a sufficient concentration for a pharmacological effect.

The conditions of series [2]: cited from earlier work; for solubility: in words.

Regarding `COc1ccc(NC(=S)N2CCc3c(sc4c3C(c3ccccc3Cl)=NCc3nnc(C)n3-4)C2)cc1` [BN 50730, 4,7,8,10-tetrahydro-1-methyl-6-(2-chlorphenyl)-9-(4-methoxyphenyl-thiocarbamoyl)-pyrrido-[4',3'-4,5]thieno[3,2-f]-1,2,4-triazolo[4,3-a]1,4-diazepine], in series [1] (plasma concentration), the “sufficient concentration for a pharmacological effect” value came out at 10 ng/ml. The “effect in plasma (onset)” value in series [1] (solid formulation, subcutaneous, rabbits, 2.0 mg/kg) is reported as “immediate effect in plasma”. In addition, in series [2], the solubility result is listed as “insoluble”.

On to `CCCCNc1ccc(C(=O)OCCN(C)C)cc1` [tetracaine], for which the solubility entry in series [2] is “soluble”.

Consider Recombinant human insulin [RHI], for which the water solubility result in series [2] was “water soluble”.

bovine pancreas insulin [BPI]: the water solubility entry in series [2] is “water insoluble”.
